Test results published in PMC2655680 (Nucleic Acids Research, 2009).
“And” between values parts separate entries of the source, which are not always exact repeats. Identical values can stand only once.

Molecular target: PNK–FHA (FHA domain of human PNK, amino acids 1–109) (Homo sapiens, UniProt Q96T60)
Assay type: binding
Details: ITC, peptide injected into PNK–FHA, 10°C, pH 7.5; floating variable of the fit

YAGSTDENTDSE
N (stoichiometry, estimated molar ratio peptide:PNK–FHA): 0.46 and 0.50 and 0.56 and 0.88 and 0.51
